The values that follow come from ChEMBL document CHEMBL1150552, “Silyl ethers of cycloheptene, novel proton pump inhibitors obtained during the total synthesis of the scopadulcic acids” (Bioorg Med Chem Lett, 1995).

Data set [1] addresses T1, Potassium-transporting ATPase (Sus scrofa) (UniProt P18434+P19156). As to the kind of experiment: Inhibition of procine gastric H+,K+-ATPase at 1 uM in vitro. Type of data set: tissue-based. The settings on record: Stomach.
Data set [2] addresses T1, Potassium-transporting ATPase (Sus scrofa). As to the kind of experiment: Inhibition of procine gastric H+,K+-ATPase at 100 uM in vitro. Type of data set: tissue-based. The settings on record: Stomach.
For data set [3] the target is unchanged. As to the kind of experiment: Inhibition of procine gastric H+,K+-ATPase at 10 uM in vitro. Type of data set: tissue-based. Particulars: Stomach.
Data set [4] can be described thus: Vmax value was measured at 0 uM concentration of silyl ether. It is filed as ADME, Sus scrofa. Particulars: pig.
Data set [5] is described as follows: Vmax value was measured at 10 uM concentration of silyl ether. It is filed as ADME, Sus scrofa. Particulars: pig.
Data set [6] can be described thus: Michaelis-Menten constant of the compound. It is filed as ADME, Sus scrofa. The settings on record: pig.
The nature of data set [7]: Vmax value was measured at 5 uM concentration of silyl ether. It is filed as ADME, Sus scrofa. Particulars: pig.
For data set [8], the target named is Potassium-transporting ATPase (Sus scrofa, UniProt P19156). The experiment in a line: Tested for inhibitory activity against gastric H+, K+-ATPase. It is filed as tissue-based, Stomach.
Chain of Potassium-transporting ATPase (P18434 whole entry): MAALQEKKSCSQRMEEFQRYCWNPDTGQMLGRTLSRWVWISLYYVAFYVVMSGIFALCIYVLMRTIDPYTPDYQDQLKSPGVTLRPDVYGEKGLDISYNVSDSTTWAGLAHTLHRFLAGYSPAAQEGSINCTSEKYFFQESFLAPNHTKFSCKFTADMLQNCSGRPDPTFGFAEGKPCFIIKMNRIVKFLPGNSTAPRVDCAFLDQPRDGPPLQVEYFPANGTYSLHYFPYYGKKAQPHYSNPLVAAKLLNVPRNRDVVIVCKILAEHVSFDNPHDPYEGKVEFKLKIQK
Chain of Potassium-transporting ATPase (P19156 whole entry): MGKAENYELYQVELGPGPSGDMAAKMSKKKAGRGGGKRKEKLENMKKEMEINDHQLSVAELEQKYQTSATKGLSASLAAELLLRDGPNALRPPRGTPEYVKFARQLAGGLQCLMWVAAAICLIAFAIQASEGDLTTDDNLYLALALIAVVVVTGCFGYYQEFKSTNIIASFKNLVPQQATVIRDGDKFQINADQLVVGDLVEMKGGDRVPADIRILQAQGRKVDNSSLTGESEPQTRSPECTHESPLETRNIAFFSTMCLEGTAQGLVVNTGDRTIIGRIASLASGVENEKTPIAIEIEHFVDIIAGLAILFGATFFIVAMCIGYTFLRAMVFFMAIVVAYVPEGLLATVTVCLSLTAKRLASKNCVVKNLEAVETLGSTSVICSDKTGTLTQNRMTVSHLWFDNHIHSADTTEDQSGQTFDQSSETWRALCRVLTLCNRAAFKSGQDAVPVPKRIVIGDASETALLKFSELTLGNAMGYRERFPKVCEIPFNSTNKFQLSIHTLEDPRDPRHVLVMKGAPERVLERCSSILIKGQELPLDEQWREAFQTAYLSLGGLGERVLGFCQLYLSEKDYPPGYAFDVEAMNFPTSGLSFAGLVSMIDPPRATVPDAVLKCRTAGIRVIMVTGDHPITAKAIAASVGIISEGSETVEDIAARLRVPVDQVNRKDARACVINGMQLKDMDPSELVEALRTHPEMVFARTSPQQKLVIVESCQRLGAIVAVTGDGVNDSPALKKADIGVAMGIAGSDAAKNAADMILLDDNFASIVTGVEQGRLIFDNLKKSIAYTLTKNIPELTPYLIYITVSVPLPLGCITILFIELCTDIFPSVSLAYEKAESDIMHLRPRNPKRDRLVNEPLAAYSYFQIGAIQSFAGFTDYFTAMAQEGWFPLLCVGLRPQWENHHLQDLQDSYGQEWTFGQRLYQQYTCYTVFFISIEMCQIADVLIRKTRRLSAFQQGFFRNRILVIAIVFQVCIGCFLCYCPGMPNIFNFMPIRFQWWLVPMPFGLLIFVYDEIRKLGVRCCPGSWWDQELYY

What is called inhibition is the relative decrease from the control value, in per cent. Consider `COC(=O)[C@]1(C)CCC[C@@]2(C)[C@H]1[C@H](OC(=O)c1ccccc1)C[C@H]1CC(=O)[C@@]3(C)CC[C@]12C3`, for which the inhibition came out at 36% in data set [1], 81% in data set [2] and 74% in data set [3].
For `CO[C@H]1C[C@@H]2C[C@@H]3OC(=O)c4cccc(c43)[C@]23CC[C@@]1(C)C3`, in that order: 1%, 55% and 16%.
In the same order, the values of `C[C@]12C=CC3=CC(=O)c4ccccc4[C@@]3(CC1)C2` are 16%, 61% and 9%.
As for `CO[C@H]1C[C@@H]2CC(=O)C3=C(CCC[C@@]3(C)CO)[C@]23CC[C@@]1(C)C3`, the inhibition in data set [1] amounted to 9%; in data set [2], 8%; in data set [3], 14%.
For `C[C@]12CC[C@@]3(C1)c1ccccc1C(=O)C[C@H]3C[C@@H]2O`, in that order: 18%, 0% and 19%.
For `COCO[C@H]1C[C@@H]2CC(=O)C3[C@@H](C#N)CCC[C@]3(C)[C@]23CC[C@@]1(C)C3` (some centres not stated), in that order: 5%, 17% and 7%.
Take `CO[C@H]1C[C@@H]2CC(=O)c3ccccc3[C@]23CC[C@@]1(C)C3`: the inhibition turned out to be 42% in data set [2] and 17% in data set [3].
As for `C=C1CCC(C)=CC[C@@H]1C[C@@H](O)C#CCCCC1OCCO1`, the inhibition in data set [1] is 8%; in data set [2], 20%; in data set [3] it was 13%.
With `CO[C@H]1C[C@@H]2C[C@H](O)c3c(C(=O)O)cccc3[C@]23CC[C@@]1(C)C3`, the inhibition in data set [1] is -6%; in data set [2] it was 21%; in data set [3] it was 0%.
In the same order, the values of `C=C1CCC(C)=CC[C@@H]1C[C@H](/C=C(\I)CCCC1OCCO1)O[Si](C)(C)C(C)(C)C` are 14%, 93% and 63%.
For `C=C[C@@]1(C)C[C@@H]1C(=O)CCC(O)c1ccccc1I` (some centres not stated), in that order: 8%, 63% and 35%.
In the same order, the values of `CC1=CCC(CCO)C(=O)CC1` (configuration not stated) are 11%, 34% and 9%.
The Vmax is the rate approached at saturating substrate. In general, Km refers to the concentration of substrate that gives half-maximal velocity. As a reminder, the IC50 is the concentration that gives 50% inhibition. With `CC1=CCC(CC(O[Si](C)(C)C(C)(C)C)c2ccccc2I)C(=O)CC1` (configuration not stated), the inhibition in data set [1] was determined as 30%; in data set [2], 95%; in data set [3] it was 74%. Besides, the maximum rate (Vmax) in data set [4] worked out at 125 µM/h/mg; in data set [5], 31 µM/h/mg; in data set [7], 63 µM/h/mg. The Km in data set [6] came out at 460 µM. For the same compound, the midpoint of inhibition in data set [8], the IC50, lay at 8.2 µM.
Regarding `COCO[C@H]1C[C@@H]2C[C@@H](O[Si](C)(C)C)C3[C@@H](C#N)CCC[C@]3(C)[C@]23CC[C@@]1(C)C3` (some centres not stated), the inhibition in data set [1] worked out at 4%; in data set [2], 67%; in data set [3], 32%.
In the same order, the values of `CC1=CCC(CC(O)c2ccccc2I)C(=O)CC1` (configuration not stated) are 10%, 72% and 19%.
For `C[C@]12CCC3=CC(=O)c4ccccc4[C@@]3(CC1)C2`, in that order: -2%, 52% and 9%.
For the compound `C[C@]12CC[C@]3(C1)C(=CC(=O)c1ccccc13)C[C@@H]2O`, the inhibition in data set [1] is 8%; in data set [2], 17%; in data set [3], 17%.
Turning to `COCO[C@H]1C[C@@H]2C[C@@H](O[Si](C)(C)C)C3[C@](C#N)(COCc4ccccc4)CCC[C@]3(C)[C@]23CC[C@@]1(C)C3` (some centres not stated), the inhibition in data set [1] was 25%; in data set [2], 52%; in data set [3], 44%.
For `C=C[C@@]1(C)C[C@@H]1C(=O)CCC(O[Si](C)(C)C(C)(C)C)c1ccccc1I` (some centres not stated), in that order: 29%, 80% and 50%.
Regarding `C[C@]12CC[C@]3(C1)[C@H](CC2=O)C[C@@H](OC(=O)c1ccccc1)[C@H]1[C@](C)(C(=O)O)CCC[C@@]13C`, the inhibition was found to be 7% in data set [1], 62% in data set [2] and 21% in data set [3].
In the same order, the values of `C=C1CCC(C)=CCC1CC(O[Si](C)(C)C(C)(C)C)c1ccccc1I` (configuration not stated) are 15%, 98% and 63%.
